Results published in patent US5240918A, “2-(substituted imino)-thiazolidines and process for the preparation thereof” (EGIS Gyogyszergyar, priority 1992, dated 1993).
Read-outs that look alike come from different tables or passages of the source.

Experiments:
[1] = Toxicity (LD50) and therapeutical index, Table II; settings: mouse, in vivo
acetic acid "writhing" = experiment: Acetic acid "writhing test" on mice (analgesic effect; method of Newbould); format: in vivo; settings: Mus musculus, po
Experimental: 2. Acetic acid "writhing test" on mice (analgesic effect) Method: Newbould, Brit. […] In the period between the 5th and 10th minutes following the administration of acetic acid the number of the characteristic "writhing" responses is counted for each animal and the "total writhing number" (within 5 minutes) is expressed as the percentage of the value obtained for the control animals. The mice are treated with the test compound and the carrier, respectively, orally 1 hour before the administration of acetic acid. 12 animals are used per dose.

[2] = tested on: experimental coronaria insufficiency induced with vasopressin; experiment: Antianginal effect (vasopressin-induced experimental coronaria insufficiency, ECG wave T; method of Nieschulz et al.); format: in vivo; settings: male rats, 2 minutes prior to vasopressin; for ED50: Rattus norvegicus, iv.
Experimental: Method: the test was carried out on rats by using the method of Nieschulz, E., Popendiker, K. and Hoffmann, I. (Arzneimittel Forschung, 5, 680 /1955/).
Male rats of 180-220 g body weight were narcotized with chloralese-urethane(70-700 mg/kg ip.). The ECG was registered with needle electrodes in standard II leading. The experimental coronaria insufficiency was induced with […].). The height of wave T in ECG was measured before and after the administration of vasopressin in both the control and treated groups. Test compounds were administered intravenously 2 minutes prior to the treatment with vasopressin.

[3] = white mice, orally 1 hour before acetic acid, writhing counted 5th to 10th minutes, 12 animals per dose, read-out: ID50 (the source's name)

Compound	LD50 [1] [mg/kg]	selectivity ratio [1]	ED50 (acetic acid "writhing"; [3]) [mg/kg]	ED50 [2] [mg/kg]	Activity (2 mg/kg iv.) [2] [%]	ED50 (acetic acid "writhing"; read-out: ID50 mg/kg) [mg/kg]
CC(=O)N=C1SCCN1c1ccc(C(F)(F)F)cc1[N+](=O)[O-] [Example 26, 2-Acetylimino-3-(4'-trifluoromethyl-2'-nitrophenyl)-thiazolidine]	2000	11.8	170	–	–	–
CC(=O)N=C1SCCN1c1ccc(Cl)cc1[N+](=O)[O-] [Example 24, 2-Acetylimino-3-(4'-chloro-2'-nitrophenyl)-thiazolidine]	700	10.9	37	–	–	–
N#CN=C1SCCN1c1cc(Cl)ccc1[N+](=O)[O-] [Example 46, 2-Cyanimido-3-(5'-chloro-2'-nitrophenyl)thiazolidine]	–	–	–	1.76	62	–
CC(=O)N=C1SCCN1c1ccccc1[N+](=O)[O-] [Example 25, L-Acetylimino=3-(2-nitrophenyl)-thiazolidine]	2000	11.1	180	–	–	–
CC(=O)Oc1ccccc1C(=O)O [Acetylsalicylic acid, reference compound]	1350	5.2	–	–	–	261
C=CCNC(=S)N=C1SCCN1c1cc(Cl)ccc1[N+](=O)[O-] [Example 20, 2-(N'-Allylthiocarbamoylimino)-3-(5'-chloro-2'-nitrophenyl)-thiazolidine]	–	–	–	1.45	78	–
